From publication PMC8891364, “Synthesis, and docking studies of novel heterocycles incorporating the indazolylthiazole moiety as antimicrobial and anticancer agents” (Scientific Reports, 2022)
In brackets after ≈: the same amount, converted by molar mass. Several values for one entry are separate records, joined by “and”; a condition that tells them apart may be missing. Equal entries are not always repeated.

How the values were obtained:
[1] = tested on: MMP-9 gene; assay: qRT-PCR gene expression in HepG-2 and Caco-2 cells; assay type: cell-based, human; details: IC50 concentrations, 2 days, compared to 5-FU and untreated cells
Method: (§1) The effects of the potent antitumor derivatives (4, 6, and 8) on the expression level of some tumor regulating genes were elucidated through quantitative real-time PCR (qRT- PCR) and compared to 5-fluorouracil (5-FU) as a reference antitumor drug. Five genes were assessed, including the tumor oncogene (Bcl-2), tumor suppressor gene (p53), matrix metalloproteinase gene (MMP-9), vascular endothelial growth factor gene (VEGF), and beta-catenin protein gene (β-catenin), in HepG-2 and Caco-2 cells, before and after treatment for 2 days with IC50 concentrations for compounds 4, 6, and 8. Following the extraction of total RNA from the tested cells, using the Gene JET RNA Purification Kit (Thermo Scientific, USA), cDNA synthesis was performed according to the cDNA Synthesis Kit protocol (Thermo Scientific, USA). qRT PCR was performed using the SYBR green kit and specific primers (Forward/Reverse) as follows: 5′-[…]-3'/5'-TCG GTCTCCTAAAAGCAGGC-3′ for the Bcl-2 gene, 5′-TAACAGTTCCTGCATG GG CG GC-3′/5′-[…]-3′ for p53, 5'-CTGCGTATTTCCATT CATC-3'/5'-CCTTGGGTCAGGTTTAGAG-3' for the MMP-9 gene, 5'-GGCTTTACT GCTGTACCTCC-3'/5'-CAAATGCTTTCTCCGCTCT-3' for the VEGF gene, and 5'-CATATGCGGCTGCTG TTCTA-3'/5'-CCGAAAG CCGTTTCTTGTAG-3' for the β-catenin gene. The upregulation and/or downregulation of the expression of the tested genes in Caco-2 and HepG-2 cells was determined by using the equation 2^−ΔΔCT[60].

[2] = tested on: VEGF gene; assay: qRT-PCR gene expression in HepG-2 and Caco-2 cells; assay type: cell-based, human; details: IC50 concentrations, 2 days, compared to 5-FU and untreated cells
Method: as §1

[3] = tested on: β-catenin gene; assay: qRT-PCR gene expression in HepG-2 and Caco-2 cells; assay type: cell-based, human; details: IC50 concentrations, 2 days
Method: as §1

[4] = tested on: Bcl-2 gene; assay: qRT-PCR gene expression in HepG-2 and Caco-2 cells; assay type: cell-based, human; details: for gene expression of Bcl-2: HepG-2 and Caco-2 cells, IC50 concentrations, 2 days, compared to 5-FU and untreated cells; for downregulation of Bcl-2 expression, fold: compared to control cells
Method: as §1

[5] = tested on: HepG-2 cells; assay: MTT antitumor assay, hepatoma cells; assay type: cell-based, human; details: for IC50: Homo sapiens, HepG2, 48 h; for SI HepG-2: ratio of IC50 of normal cells (HFB-4) versus IC50 of tumor cells
Method: (§2) The human melanocytes (HFB-4) cells, hepatoma (HepG-2) cells, and colon carcinoma (Caco-2) cells were obtained from American Type Culture Collection (ATCC, USA). The cytotoxicity of the newly synthesized compounds (at various concentrations) was determined using the 3-[4, 5-dimethylthiazol]-2, 5-diphenyltetrazolium bromide method (MTT assay)[59] against HFB-4 cells (normal human melanocytes), HepG-2 cells (hepatoma), and Caco-2 cells (colon carcinoma). Normal and cancer cells (1.0 × 10^4) were cultured in sterile 96-well microplates, and incubated for 24 h in DMEM (Lonza, USA) supplemented with 10% fetal bovine serum (Gibco, USA) for HFB-4 and Caco-2 cells or in an RPMI-1640 medium (Lonza, USA) supplemented with 10% FBS for HepG-2 cells. After 24 h of incubation, different doses of the tested synthesized compounds ([…]) were added in triplicate to all cells and incubated for another 48 h in 5% CO2. After washing the cells 3 times with fresh media, to remove dead cells and debris, a solution of MTT (Sigma -Aldrich, 0.5 mg/mL) was added to each well and further incubated for 2–5 h at 37 °C. Afterward, the MTT solution was decanted and 200 µL of DMSO was added. The optical density was measured at 570 nm using a microplate reader (BMG LabTech, Germany), where the cells’ relative viability (%) was estimated using the following equation: viability of cells (%) = [A1 − A0/AU − A0] × 100, where A1 is the absorbance of the test compound, A0 is the absorbance of the blank, and AU is the absorbance of untreated cells (control).
(§3) The antitumor activity of the synthesized compound was determined by calculating the IC50 value (half maximal inhibitory concentration) using Graph Pad Prism 6.0 software. The value of IC50 indicates the derivative concentration that causes 50% cell death, whereas the value of the selectivity index (SI), indicating the ratio of the IC50 value of normal cells versus the IC50 value of tumor cells, was also included as reported by[60],[61].

[6] = tested on: Caco-2 cells; assay: Cell cycle arrest analysis by flow cytometry; assay type: cell-based, human; details: 48 h, IC50 concentrations, vs untreated control
Method: The cell cycle arrest of treated Caco-2 cells was evaluated through flow cytometry (Partec, Germany) in comparison with untreated cells and treated cells with 5-FU as a positive control[60],[62]. […] After washing the cells three times, the cells were fixed by adding 1 mL of 70% cold ethanol dropwise with a gentle vortex. Caco-2 cells were washed three times again with cold PBS and incubated in 1 mL of PBS containing 5 μg/mL RNase A (Sigma-Aldrich) for 1 h at 37 °C. Then 10 μL of PI (Sigma-Aldrich) was added to cells at a final concentration of 1 mg/mL in deionized water and left at 4 °C until analysis in the dark. The cell cycle of Caco-2 cells before and after treatment was analyzed by FACS using Cell Quist and Mod Fit software by reading at 488 nm.

[7] = tested on: Caco-2 cells; assay: MTT antitumor assay, colon carcinoma cells; assay type: cell-based; details: for IC50: Homo sapiens, Caco-2, 48 h; for SI Caco-2: ratio of IC50 of normal cells (HFB-4) versus IC50 of tumor cells
Method: as §2, §3

[8] = tested on: HFB-4 cells; assay: MTT cytotoxicity assay, normal human melanocytes; assay type: cell-based; details: Melanocyte, 48 h
Method: as §2, §3

[9] = tested on: Streptococcus mutans ATCC 25175; assay: Antimicrobial microtiter-plate MIC assay; assay type: cell-based; details: Streptococcus mutans, ATCC25175, 24 h, read-out: MIC Streptococcus mutant
Method: (§4) The antimicrobial activity of the newly synthesized compounds (2–9) was evaluated against three model pathogenic microorganisms as follows: Streptococcus mutans ATCC 25175 (Gram-positive bacterium); Pseudomonas aeruginosa ATCC 27853 (Gram-negative bacterium); and Candida albicans ATCC 10231 (fungi-like unicellular organism). After cultivating the three tested pathogens overnight in LB broth, 100 µL of each tested organism (10^6 CFU/mL) was added separately to 100 µL of the serially diluted test compounds (5–80 µg) in a 96-well tissue culture plate and incubated at 37 °C for 24 h. Eventually, microbial growth was measured at 600 nm, and the results are presented in the form of MIC (Table 4). Two antibacterial reference drugs, ampicillin and ciprofloxacin, and one antifungal drug, clotrimazole, were incorporated into the experiments.

[10] = tested on: Pseudomonas aeruginosa ATCC 27853; assay: Antimicrobial microtiter-plate MIC assay; assay type: cell-based; details: Pseudomonas aeruginosa, ATCC27853; 24 h, 37 °C
Method: as §4

[11] = tested on: Candida albicans ATCC 10231; assay: Antimicrobial microtiter-plate MIC assay; assay type: cell-based; details: Candida albicans, ATCC10231; 24 h, 37 °C
Method: as §4

[12] = tested on: Streptococcus mutans; assay: Microbial-biofilm inhibition, tissue-culture plate technique (TCP); assay type: cell-based; details: 25 µg/mL, 24 h
Method: (§5) The activity of the newly synthesized compounds against microbial biofilm formation was estimated through the tissue-culture plate technique (TCP) as follows: the three above-mentioned pathogens, Streptococcus mutans, Pseudomonas aeruginosa, and Candida albicans were cultivated overnight in LB broth at 37 °C. Afterward, 200 µL of each diluted organism (10^6 CFU/mL) was inoculated separately (in triplicate) into 96-well tissue culture plates and incubated overnight at 37 °C. The free planktonic cells were removed, after the incubation period, by flipping the plate and washing each well three times with phosphate-buffered-saline (PBS), pH 7.1. To each well, 175 µL of fresh LB broth was added along with 25 µL of the tested compound (25 µg/mL final concentrations). The plates were reincubated at 37 °C for another 24 h, washed with PBS buffer pH 7.1 three times, and dried for 5 min at 50 °C. The formed biofilm was stained with crystal violet solution (0.1% w/v) for 5 min. The excess stain was decanted, and the stained biofilm was solubilized with 200 µL of glacial acetic acid (30% v/v), where the developed blue color was measured at 590 nm. The results are expressed as relative inhibition (%) compared to untreated groups (control). Controls were prepared by culturing the three pathogens on LB medium without any tested compounds.

[13] = tested on: Pseudomonas aeruginosa; assay: as above; assay type: cell-based; details: 25 µg/mL, 24 h
Method: as §5

[14] = tested on: Candida albicans; assay: as above; assay type: cell-based; details: Candida albicans, 24 h, relative to untreated
Method: as §5

| SMILES | gene expression of MMP-9 [1] | gene expression of VEGF [2] | expression of the β-catenin gene [3] | gene expression of Bcl-2 [4] | downregulation of Bcl-2 expression, fold [4] | IC50 ([5]; MTT, 48 h) [µg/mL] | SI HepG-2 [5] | apoptotic phase (sub-G1) population [6] | synthesis (S) phase population [6] | IC50 ([7]; MTT, 48 h) [µg/mL] | SI Caco-2 [7] | IC50 [8] [µg/mL] | MIC [9] [µg/mL] | MIC [10] [µg/mL] | MIC [11] [µg/mL] | antibiofilm formation activity Streptococcus mutans (in words) [12] | other results |
| --- | --- | --- | --- | --- | --- | --- | --- | --- | --- | --- | --- | --- | --- | --- | --- | --- | --- |
| N#Cc1c(N)oc2nc(N3NC4=C(CCCC4)C3c3ccccc3)sc12 (centres unmarked) [Compound 4, 5-amino-2-(3-phenyl-1,3,4,5,6,7-hexahydro-2H-indazol-2-yl)furo[2,3-d] thiazole-6-carbonitrile] | significantly downregulated | significantly downregulated | significantly suppressed | significantly downregulated | more than threefold | 7.88 ± 0.1 (≈ 21.7 µM) | 18.1 and 18.06 ± 0.19 | becomes detectable after treatment | decreased | 6.18 ± 1.14 (≈ 17 µM) | 23 and 23.03 ± 0.24 | 142 ± 1.48 (≈ 392 µM) | 34.41 ± 0.237 (≈ 94.7 µM) | 60.8 ± 2.22 (≈ 167 µM) | 48.9 ± 1.05 (≈ 135 µM) | had antibiofilm formation activities | biofilm inhibition activity Pseudomonas aeruginosa (in words) [13]: high biofilm inhibition activity |
| NNC(=O)c1c(N)sc2sc(N3NC4=C(CCCC4)C3c3ccccc3)nc12 (centres unmarked) [Compound 6, 5-amino-2-(3-phenyl-1,3,4,5,6,7-hexahydro-2H-indazol-2-yl)thieno[3,2-d] thiazole-6-carbohydrazide] | significantly downregulated | significantly downregulated | significantly suppressed | significantly downregulated | more than threefold | 6.12 ± 0.19 (≈ 14.8 µM) | 21.8 and 21.75 ± 0.03 | becomes detectable after treatment | decreased | 5.21 ± 0.22 (≈ 12.6 µM) | 25.6 and 25.59 ± 0.03 | 133 ± 4.18 (≈ 323 µM) | 39.58 ± 0.348 (≈ 95.9 µM) | 58.5 ± 2.27 (≈ 142 µM) | 57.3 ± 1.32 (≈ 139 µM) | – | inhibition at 25 µg/mL [14]: 61% |
| N#CCc1nn(N)c2nc(N3NC4=C(CCCC4)C3c3ccccc3)sc12 (centres unmarked) [Compound 8, 2-(1-amino-5-(3-phenyl-1,3,4,5,6,7-hexahydro-2H-indazol-2-yl)-1H-pyrazolo [3,4-d]thiazol-3-yl)acetonitrile] | significantly downregulated | significantly downregulated | significantly suppressed | significantly downregulated | more than threefold | ~5.9 (≈ 15.6 µM) | 26.23 ± 0.30 | becomes detectable after treatment | decreased | ~5.9 (≈ 15.6 µM) | 26.08 ± 0.30 | 154 ± 1.76 (≈ 407 µM) | 15.8 ± 0.205 (≈ 41.8 µM) | 53 ± 2.18 (≈ 141 µM) | 56.2 ± 1.24 (≈ 149 µM) | had antibiofilm formation activities | IC50 HepG-2 ([5]; MTT, 48 h): 5.86 ± 0.34 µg/mL (≈ 15.5 µM); SI HepG-2 ([5]; listed as Derivative 8): about 26; IC50 Caco-2 ([7]; MTT, 48 h): 5.89 ± 0.38 µg/mL (≈ 15.6 µM); SI Caco-2 ([7]; listed as Derivative 8): about 26 |
